# What was measured:
# wild oat = assay: Test B pre/postemergence wild oat; type: in vivo, Avena fatua
# Method in brief: (§1)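 Test chemicals in a non-phytotoxic solvent mixture with surfactant were sprayed preemergence onto planted seeds and postemergence onto plants 2 to 18 cm tall (1- to 4-leaf stage). After twelve to sixteen days in a greenhouse, injury was visually rated against untreated controls from 0 (no effect) to 10 (complete control).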
# morningglory = assay: Test B pre/postemergence morningglory; type: in vivo, Ipomoea hederacea
# Method in brief: as §1
# velvetleaf = assay: Test B pre/postemergence velvetleaf; type: in vivo, Abutilon theophrasti
# Method in brief: as §1
# bedstraw = assay: Test B pre/postemergence bedstraw; type: in vivo, Galium aparine
# Method in brief: as §1
# smallflower flatsedge = assay: Test B flood test smallflower flatsedge; type: in vivo, Cyperus difformis
# Method in brief: (§2)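 Each value is a visual injury score relative to controls, with 10 meaning complete control and 0 no effect. Evaluation took place twelve to sixteen days after the 2-leaf-stage plants were treated and kept in the greenhouse.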
# rice = assay: Test B flood test rice; type: in vivo, Oryza sativa
# Method in brief: as §2
# sugar beet = assay: Test B pre/postemergence sugar beet; type: in vivo, Beta vulgaris
# Method in brief: as §1
# cocklebur = assay: Test B pre/postemergence cocklebur; type: in vivo, Xanthium strumarium
# Method in brief: as §1
# rape = assay: Test B pre/postemergence rape; type: in vivo, Brassica napus
# Method in brief: as §1
# pigweed = assay: Test B pre/postemergence pigweed; type: in vivo, Amaranthus retroflexus
# Method in brief: as §1
# blackgrass = assay: Test B pre/postemergence blackgrass; type: in vivo, Alopecurus myosuroides
# Method in brief: as §1
# giant foxtail = assay: Test B pre/postemergence giant foxtail; type: in vivo, Setaria faberii
# Method in brief: as §1
# crabgrass = assay: Test B pre/postemergence crabgrass; type: in vivo, Digitaria sanguinalis
# Method in brief: as §1
# corn = assay: Test B pre/postemergence corn; type: in vivo, Zea mays
# Method in brief: as §1
# surinam grass = assay: Test B pre/postemergence surinam grass; type: in vivo, Brachiaria decumbens
# Method in brief: as §1
# bamyardgrass = assay: Test B flood test barnyardgrass; type: in vivo, Echinochloa crus-galli
# Method in brief: as §2
# [1] = Postemergence, Rate 62 g/ha, scale 0 to 10, 0 is no effect, 10 is complete control
# [2] = Preemergence, Rate 125 g/ha, scale of 0 to 10 where 0 is no effect and 10 is complete control
# [3] = Preemergence, Rate 250 g/ha, scale 0 (no effect) to 10 (complete control)
# [4] = Rate 62 g/ha, Preemergence, scale 0 to 10
# [5] = Rate 250 g/ha, Postemergence, scale 0 to 10, 0 is no effect, 10 is complete control
# [6] = Rate 500 g/ha, Postemergence, scale 0 to 10, 0 is no effect, 10 is complete control
# [7] = Rate 500 g/ha, Preemergence, scale 0 to 10 (0 no effect, 10 complete control)
# [8] = Postemergence, Rate 125 g/ha, scale of 0 to 10 where 0 is no effect and 10 is complete control
# [9] = Pre-emergence, Rate 62 g/ha, scale 0 to 10, 0 is no effect, 10 is complete control
# [10] = Rate 125 g/ha, Pre-emergence section (flood test species), scale 0 to 10, 0 no effect, 10 complete control
# [11] = Rate 250 g/ha, Pre-emergence (flood test species), scale 0 to 10, 0 is no effect, 10 is complete control
# [12] = Rate 500 g/ha, Pre-emergence section of Table B, 0 to 10 scale (0 no effect, 10 complete control)
smiles,measurement,setting,value
CC(C)N(C(=O)n1oc(=O)n(CC2=NOCCO2)c1=O)c1ccc(F)cc1F [Compound 758],"Plant response rating, Wild oats",wild oat; [1],0
same,"Plant response rating, Wild oats",wild oat; [2],8
same,Wild oats plant response rating,wild oat; [3],8
same,Wild oats plant response rating,wild oat; [4],5
same,Wild oats plant response rating,wild oat; [5],1
same,Wild oats plant response rating,wild oat; [6],2
same,Wild oats plant response rating,wild oat; [7],9
same,"Plant response rating, Morningglory",morningglory; [1],2
same,Morningglory plant response rating,morningglory; [8],4
same,"Plant response rating, Morningglory",morningglory; [2],0
same,Morningglory plant response rating,morningglory; [3],0
same,Morningglory plant response rating,morningglory; [4],0
same,Morningglory plant response rating,morningglory; [5],4
same,Morningglory plant response rating,morningglory; [6],8
same,Morningglory plant response rating,morningglory; [7],0
same,"Plant response rating, Velvetleaf",velvetleaf; [1],5
same,"Plant response rating, Velvetleaf",velvetleaf; [2],4
same,Velvetleaf plant response rating,velvetleaf; [3],4
same,Velvetleaf plant response rating,velvetleaf; [4],2
same,Velvetleaf plant response rating,velvetleaf; [5],6
same,Velvetleaf plant response rating,velvetleaf; [6],7
same,Velvetleaf plant response rating,velvetleaf; [7],7
same,Bedstraw plant response rating,bedstraw; [8],7
same,"Plant response rating, Bedstraw",bedstraw; [2],1
same,Bedstraw plant response rating,bedstraw; [3],3
same,Bedstraw plant response rating,bedstraw; [4],0
same,Bedstraw plant response rating,bedstraw; [5],7
same,Bedstraw plant response rating,bedstraw; [6],8
same,Bedstraw plant response rating,bedstraw; [7],4
same,S. Flatsedge plant response rating,smallflower flatsedge; [9],0
same,S. Flatsedge plant response rating,smallflower flatsedge; [10],0
same,S. Flatsedge plant response rating,smallflower flatsedge; [11],0
same,S. Flatsedge plant response rating,smallflower flatsedge; [12],0
same,Rice plant response rating,rice; [9],0
same,Rice plant response rating,rice; [10],0
same,Rice plant response rating,rice; [11],0
same,Rice plant response rating,rice; [12],0
same,"Plant response rating, Sugarbeets",sugar beet; [1],0
same,"Plant response rating, Sugarbeets",sugar beet; [2],7
same,Sugarbeets plant response rating,sugar beet; [3],7
same,Sugarbeets plant response rating,sugar beet; [4],5
same,Sugarbeets plant response rating,sugar beet; [5],3
same,Sugarbeets plant response rating,sugar beet; [6],8
same,Sugarbeets plant response rating,sugar beet; [7],8
same,"Plant response rating, Cocklebur",cocklebur; [1],0
same,Cocklebur plant response rating,cocklebur; [8],0
same,"Plant response rating, Cocklebur",cocklebur; [2],0
same,Cocklebur plant response rating,cocklebur; [3],0
same,Cocklebur plant response rating,cocklebur; [4],0
same,Cocklebur plant response rating,cocklebur; [5],4
same,Cocklebur plant response rating,cocklebur; [6],4
same,Cocklebur plant response rating,cocklebur; [7],0
same,"Plant response rating, Rape",rape; [1],0
same,Rape plant response rating,rape; [8],0
same,"Plant response rating, Rape",rape; [2],4
same,Rape plant response rating,rape; [3],4
same,Rape plant response rating,rape; [4],0
same,Rape plant response rating,rape; [5],0
same,Rape plant response rating,rape; [6],2
same,Rape plant response rating,rape; [7],8
same,"Plant response rating, Redroot pigweed",pigweed; [1],7
same,Redroot pigweed plant response rating,pigweed; [8],8
same,"Plant response rating, Redroot pigweed",pigweed; [2],8
same,Redroot pigweed plant response rating,pigweed; [3],8
same,Redroot pigweed plant response rating,pigweed; [4],8
same,Redroot pigweed plant response rating,pigweed; [5],8
same,Redroot pigweed plant response rating,pigweed; [6],8
same,Redroot pigweed plant response rating,pigweed; [7],10
same,"Plant response rating, Blackgrass",blackgrass; [1],3
same,Blackgrass plant response rating,blackgrass; [8],6
same,"Plant response rating, Blackgrass",blackgrass; [2],8
same,Blackgrass plant response rating,blackgrass; [3],8
same,Blackgrass plant response rating,blackgrass; [4],6
same,Blackgrass plant response rating,blackgrass; [5],6
same,Blackgrass plant response rating,blackgrass; [6],6
same,Blackgrass plant response rating,blackgrass; [7],9
same,"Plant response rating, Giant foxtail",giant foxtail; [1],8
same,Giant foxtail plant response rating,giant foxtail; [8],9
same,"Plant response rating, Giant foxtail",giant foxtail; [2],9
same,Giant foxtail plant response rating,giant foxtail; [3],10
same,Giant foxtail plant response rating,giant foxtail; [4],9
same,Giant foxtail plant response rating,giant foxtail; [5],9
same,Giant foxtail plant response rating,giant foxtail; [6],9
same,Giant foxtail plant response rating,giant foxtail; [7],10
same,"Plant response rating, Crabgrass",crabgrass; [1],2
same,Crabgrass plant response rating,crabgrass; [8],3
same,"Plant response rating, Crabgrass",crabgrass; [2],9
same,Crabgrass plant response rating,crabgrass; [3],10
same,Crabgrass plant response rating,crabgrass; [4],9
same,Crabgrass plant response rating,crabgrass; [5],8
same,Crabgrass plant response rating,crabgrass; [6],9
same,Crabgrass plant response rating,crabgrass; [7],10
same,"Plant response rating, Corn",corn; [1],0
same,Corn plant response rating,corn; [8],0
same,"Plant response rating, Corn",corn; [2],0
same,Corn plant response rating,corn; [4],0
same,Corn plant response rating,corn; [5],0
same,Corn plant response rating,corn; [6],3
same,Corn plant response rating,corn; [7],3
same,"Plant response rating, B. signalgrass",surinam grass; [1],4
same,B. signalgrass plant response rating,surinam grass; [8],5
same,B. signalgrass plant response rating,"surinam grass; Preemergence, Rate 62 g/ha, scale of 0 to 10 where 0 is no effect and 10 is complete control",6
same,"Plant response rating, B. signalgrass",surinam grass; [2],6
same,B. signalgrass plant response rating,surinam grass; [3],7
same,B. signalgrass plant response rating,surinam grass; [5],6
same,B. signalgrass plant response rating,surinam grass; [6],7
same,B. signalgrass plant response rating,surinam grass; [7],8
same,Barnyardgrass plant response rating,bamyardgrass; [9],0
same,Barnyardgrass plant response rating,bamyardgrass; [10],0
same,Barnyardgrass plant response rating,bamyardgrass; [11],0
same,Barnyardgrass plant response rating,bamyardgrass; [12],0

# From patent publication US6737383B1, “Herbicidal oxadiazolidines” (priority 1999, dated 2004)
